# Experiments:
# [1] = target: T1, human muscarinic acetylcholine M3 receptor (Homo sapiens, UniProt P20309); assay: Muscarinic 3 receptor binding assay ([3H]NMS competition, SPA), pIC50; details: [3H]NMS 0.1 nM, CHO-K1 cell membranes expressing human M3 receptor
# T1 construct: expressed in transfected cells; host or cells: CHO-K1 (Chinese Hamster Ovary) cell membranes
# Method: Muscarinic 3 Receptor Binding Assay
# The affinity (pIC50) of compounds binding to the M3 receptor is determined by competition binding of [^3H]N-methyl scopolamine (NMS) to CHO-K1 (Chinese Hamster Ovary) cell membranes expressing the human muscarinic acetylcholine M3 receptor (M3-ACh) in a scintillation proximity assay (SPA) format.
# SPA beads are precoated with membranes and then incubated at 2 mg of beads per well with serial dilutions of compounds of the invention, [^3H]NMS at 0.1 nM, quarter Kd (experimentally determined dissociation constant) and assay buffer (20 mM HEPES pH 7.4 containing 5 mM MgCl2 and 0.1% (w/v) bovine serum albumin). The assay is conducted in a final volume of 200 μL, in the presence of 1% (v/v) dimethyl sulphoxide (DMSO). Total binding of [^3H]NMS is determined in the absence of competing compound and non-specific binding of [^3H]NMS is determined in the presence of 1 μM atropine. The plates are incubated for 16 hours at room temperature and then read on Wallac Microbeta™ using a normalised ^3H protocol. The pIC50, defined as the negative logarithm of the molar concentration of compound required for 50% reduction in specific [^3H]-NMS binding, is determined.
# Adrenergic β2 = target: T2, Adrenergic β2 (Homo sapiens, UniProt P07550); assay: Adrenergic β2 mediated cAMP production in H292 cells (AlphaScreen), concentration response; format: cell-based; details: for EC50: 60 min, 300 μM rolipram, read-out: β2 pEC50 (converted); for β2 Intrinsic Activity: fraction relative to the maximum activity determined for formoterol
# T2 construct: Adherent H292 cells are removed from tissue culture flasks by treatment with Accutase™ cell detachment solution; endogenous in cells; host or cells: H292 cells
# T2 sequence (P07550 whole entry): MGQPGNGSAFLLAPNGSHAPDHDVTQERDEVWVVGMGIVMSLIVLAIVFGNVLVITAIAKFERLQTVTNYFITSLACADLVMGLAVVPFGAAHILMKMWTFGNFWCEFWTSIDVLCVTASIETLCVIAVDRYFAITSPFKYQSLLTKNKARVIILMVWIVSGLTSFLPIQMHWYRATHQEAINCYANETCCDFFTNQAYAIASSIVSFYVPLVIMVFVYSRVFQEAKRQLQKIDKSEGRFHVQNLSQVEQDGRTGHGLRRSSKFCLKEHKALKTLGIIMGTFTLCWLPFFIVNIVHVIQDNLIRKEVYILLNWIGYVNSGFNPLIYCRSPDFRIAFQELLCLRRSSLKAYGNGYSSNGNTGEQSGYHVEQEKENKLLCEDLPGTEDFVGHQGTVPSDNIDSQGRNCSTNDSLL
# Method: Assay for Adrenergic 132 Mediated cAMP Production
# H292 cells are grown in 225 cm2 flasks incubator at 37° C., 5% CO2 in RPMI medium containing 10% (v/v) FBS (foetal bovine serum) and 2 mM L-glutamine.
# Adherent H292 cells re removed from tissue culture flasks by treatment with Accutase™ cell detachment solution for 15 minutes. Flasks are incubated for 15 minutes in a humidified incubator at 37° C., 5% CO2. Detached cells are re-suspended in RPMI media (containing 10% (v/v) FBS and 2 mM L-glutamine) at 0.1×10^6 cells per mL. 10000 cells in 100 μl, are added to each well of a tissue-culture-treated 96-well plate and the cells incubated overnight in a humidified incubator at 37° C., 5% CO2. The culture media is removed and cells are washed twice with 100 μL assay buffer and replaced with 50 μl assay buffer (HBSS solution containing 10 mM HEPES pH7.4 and 5 mM glucose). Cells are rested at room temperature for 20 minutes after which time 25 μl of rolipram (1.2 mM made up in assay buffer containing 2.4% (v/v) dimethylsulphoxide) is added. Cells are incubated with rolipram for 10 minutes after which time test compounds are added and the cells are incubated for 60 minutes at room temperature. The final rolipram concentration in the assay is 300 μM and final vehicle concentration is 1% (v/v) dimethylsulphoxide. The reaction is stopped by removing supernatants, washing once with 100 μL assay buffer and replacing with 50 μL lysis buffer. The cell monolayer is frozen at −80° C. for 30 minutes (or overnight).
# AlphaScreen™ cAMP detection
# The concentration of cAMP (cyclic adenosine monophosphate) in the cell lysate is determined using AlphaScreen™ methodology. The frozen cell plate is thawed for 20 minutes on a plate shaker then 10 μL of the cell lysate is transferred to a 96-well white plate. 40 μL of mixed AlphaScreen™ detection beads pre-incubated with biotinylated cAMP, is added to each well and the plate incubated at room temperature for 3 hours in the dark. The AlphaScreen™ signal is measured using an EnVision spectrophotometer (Perkin-Elmer Inc.) with the recommended manufacturer's settings. cAMP concentrations are determined by reference to a calibration curve determined in the same experiment using standard cAMP concentrations. Concentration response curves for agonists are constructed and data is fitted to a four parameter logistic equation to determine both the pEC50 and Intrinsic Activity. Intrinsic Activity is expressed as a fraction relative to the maximum activity determined for formoterol in each experiment.
# T1 sequence (P20309 whole entry): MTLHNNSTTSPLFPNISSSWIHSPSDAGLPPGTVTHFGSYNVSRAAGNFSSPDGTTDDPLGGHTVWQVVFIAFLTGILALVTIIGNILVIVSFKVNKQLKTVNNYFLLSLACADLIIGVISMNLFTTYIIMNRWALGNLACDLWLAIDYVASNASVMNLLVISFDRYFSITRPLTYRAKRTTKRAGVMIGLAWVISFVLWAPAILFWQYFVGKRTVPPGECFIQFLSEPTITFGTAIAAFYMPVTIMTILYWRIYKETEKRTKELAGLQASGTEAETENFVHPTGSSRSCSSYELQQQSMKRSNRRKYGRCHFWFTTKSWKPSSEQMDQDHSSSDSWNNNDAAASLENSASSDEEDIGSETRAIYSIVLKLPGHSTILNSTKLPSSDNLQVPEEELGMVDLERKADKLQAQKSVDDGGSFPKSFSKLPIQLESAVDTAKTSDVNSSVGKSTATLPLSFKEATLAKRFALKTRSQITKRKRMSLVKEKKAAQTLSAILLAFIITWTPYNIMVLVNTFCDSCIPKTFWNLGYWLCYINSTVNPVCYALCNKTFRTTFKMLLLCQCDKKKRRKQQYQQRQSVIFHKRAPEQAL
Compound,IC50 [1] [nM],EC50 (Adrenergic β2) [nM],β2 Intrinsic Activity (Adrenergic β2)
"CCc1nc(C(=O)N2CCOC3(CCN(Cc4cccc(CCOCCC(=O)N(CC)CCNCCc5ccc(O)c6c5OCC(=O)N6)c4Cl)CC3)C2)cs1 [Example 30, 3-(2-Chloro-3-((4-(2-ethylthiazole-4-carbonyl)-1-oxa-4,9-diazaspiro[5.5]undecan-9-yl)methyl)phenethoxy)-N-ethyl-N-(2-(2-(5-hydroxy-3-oxo-3,4-dihydro-2H-benzo[b][1,4]oxazin-8-yl)ethylamino)ethyl)propanamide ditrifluoroacetate]",0.316,7.94,0.8
"CC(C)c1nc(C(=O)N2CCOC3(CCN(CCc4cccc(CCOCCC(=O)N(CCNCCc5ccc(O)c6c5OCC(=O)N6)C5CCCC5)c4)CC3)C2)cs1 [Example 39, N-Cyclopentyl-N-(2-(2-(5-hydroxy-3-oxo-3,4-dihydro-2H-benzo[b][1,4]oxazin-8-yl)ethylamino)ethyl)-3-(3-(2-(4-(2-isopropylthiazole-4-carbonyl)-1-oxa-4,9-diazaspiro[5.5]undecan-9-yl)ethyl)phenethoxy)propanamide ditrifluoroacetate]",1,10,1.0
"CCCCN(CCNCCc1ccc(O)c2c1OCC(=O)N2)C(=O)CCOCCc1cccc(CN2CCC3(CC2)CN(C(=O)c2csc(CC)n2)CCO3)c1Cl [Example 32, N-Butyl-3-(2-chloro-3-((4-(2-ethylthiazole-4-carbonyl)-1-oxa-4,9-diazaspiro[5.5]undecan-9-yl)methyl)phenethoxy)-N-(2-(2-(5-hydroxy-3-oxo-3,4-dihydro-2H-benzo[b][1,4]oxazin-8-yl)ethylamino)ethyl)propanamide ditrifluoroacetate]",0.398,15.8,0.9
"Cc1nc(C(=O)N2CCOC3(CCN(Cc4ccc(CCOCCC(=O)N(CCNCCc5ccc(O)c6c5OCC(=O)N6)C5CCCCC5)cc4)CC3)C2)cs1 [Example 45, N-Cyclohexyl-N-(2-(2-(5-hydroxy-3-oxo-3,4-dihydro-2H-benzo[b][1,4]oxazin-8-yl)ethylamino)ethyl)-3-(4-((4-(2-methylthiazole-4-carbonyl)-1-oxa-4,9-diazaspiro[5.5]undecan-9-yl)methyl)phenethoxy)propanamide ditrifluoroacetate]",6.31,39.8,0.9
"CC(C)c1nc(C(=O)N2CCOC3(CCN(Cc4cccc(OCCCOCCC(=O)N(CCNCCc5ccc(O)c6c5OCC(=O)N6)C5CCCCC5)c4)CC3)C2)cs1 [Example 60, N-Cyclohexyl-N-(2-(2-(5-hydroxy-3-oxo-3,4-dihydro-2H-benzo[b][1,4]oxazin-8-yl)ethylamino)ethyl)-3-(3-(3-((4-(2-isopropylthiazole-4-carbonyl)-1-oxa-4,9-diazaspiro[5.5]undecan-9-yl)methyl)phenoxy)propoxy)propanamide ditrifluoroacetate]",0.2,50.1,0.7
"CCCN(CCNCCc1ccc(O)c2c1OCC(=O)N2)C(=O)CCOCCc1cccc(CN2CCC3(CC2)CN(C(=O)c2csc(C(C)C)n2)CCO3)c1Cl [Example 29, 3-(2-Chloro-3-((4-(2-isopropylthiazole-4-carbonyl)-1-oxa-4,9-diazaspiro[5.5]undecan-9-yl)methyl)phenethoxy)-N-(2-(2-(5-hydroxy-3-oxo-3,4-dihydro-2H-benzo[b][1,4]oxazin-8-yl)ethylamino)ethyl)-N-propylpropanamide ditrifluoroacetate]",1.26,39.8,0.9
"CC(C)Cc1nc(C(=O)N2CCOC3(CCN(Cc4cccc(CCOCCC(=O)N(CCNCCc5ccc(O)c6c5OCC(=O)N6)C5CCCCC5)c4)CC3)C2)cs1 [Example 94, N-Cyclohexyl-N-(2-(2-(5-hydroxy-3-oxo-3,4-dihydro-2H-benzo[b][1,4]oxazin-8-yl)ethylamino)ethyl)-3-(3-((4-(2-isobutylthiazole-4-carbonyl)-1-oxa-4,9-diazaspiro[5.5]undecan-9-yl)methyl)phenethoxy)propanamide]",0.251,126,1.0
"CC(C)c1nc(C(=O)N2CCOC3(CCN(Cc4cccc(CCOCCC(=O)N(CCNCCc5ccc(O)c6[nH]c(=O)sc56)C5CCOCC5)c4F)CC3)C2)cs1 [Example 11, 3-(2-Fluoro-3-((4-(2-isopropylthiazole-4-carbonyl)-1-oxa-4,9-diazaspiro[5.5]undecan-9-yl)methyl)phenethoxy)-N-(2-(2-(4-hydroxy-2-oxo-2,3-dihydrobenzo[d]thiazol-7-yl)ethylamino)ethyl)-N-(tetrahydro-2H-pyran-4-yl)propanamide ditrifluoroacetate]",0.316,79.4,1.1
"CC(C)c1nc(C(=O)N2CCOC3(CCN(Cc4cccc(SCCOCCC(=O)N(C)CCNCCc5ccc(O)c6[nH]c(=O)sc56)c4)CC3)C2)cs1 [Example 55, N-(2-(2-(4-Hydroxy-2-oxo-2,3-dihydrobenzo[d]thiazol-7-yl)ethylamino)ethyl)-3-(2-(3-((4-(2-isopropylthiazole-4-carbonyl)-1-oxa-4,9-diazaspiro[5.5]undecan-9-yl)methyl)phenylthio)ethoxy)-N-methylpropanamide ditrifluoroacetate]",0.126,100,0.6
"CC(C)c1csc(C(=O)N2CCOC3(CCN(Cc4cccc(CCOCCC(=O)N(CCNCCc5ccc(O)c6c5OCC(=O)N6)C5CCCCC5)c4)CC3)C2)c1 [Example 98, N-Cyclohexyl-N-(2-(2-(5-hydroxy-3-oxo-3,4-dihydro-2H-benzo[b][1,4]oxazin-8-yl)ethylamino)ethyl)-3-(3-((4-(4-isopropylthiophene-2-carbonyl)-1-oxa-4,9-diazaspiro[5.5]undecan-9-yl)methyl)phenethoxy)propanamide]",0.794,200,1.1
"CC(C)c1nc(C(=O)N2CCOC3(CCN(Cc4cc(CCOCCC(=O)N(CCNCCc5ccc(O)c6c5OCC(=O)N6)C5CCCCC5)ccc4Cl)CC3)C2)cs1 [Example 49, 3-(4-Chloro-3-((4-(2-isopropylthiazole-4-carbonyl)-1-oxa-4,9-diazaspiro[5.5]undecan-9-yl)methyl)phenethoxy)-N-cyclohexyl-N-(2-(2-(5-hydroxy-3-oxo-3,4-dihydro-2H-benzo[b][1,4]oxazin-8-yl)ethylamino)ethyl)propanamide ditrifluoroacetate]",3.16,158,0.9
"CC(C)c1nc(C(=O)N2CCOC3(CCN(Cc4cccc(CCOCCC(=O)N(CCNCCc5ccc(O)c6c5OCC(=O)N6)[C@H](C)c5ccccc5)c4F)CC3)C2)cs1 [Example 14, (R)-3-(2-Fluoro-3-((4-(2-isopropylthiazole-4-carbonyl)-1-oxa-4,9-diazaspiro[5.5]undecan-9-yl)methyl)phenethoxy)-N-(2-(2-(5-hydroxy-3-oxo-3,4-dihydro-2H-benzo[b][1,4]oxazin-8-yl)ethylamino)ethyl)-N-(1-phenylethyl)propanamide ditrifluoroacetate]",0.398,50.1,1.0
